One experiment deals with Sirt6 (Homo sapiens, UniProt Q8N6T7). Nature of the experiment: Fluorogenic acyl peptide-AMC assay with Sirt6. The format is biochemical. The settings on record: AMC released by trypsin, fluorescence. The text has this:
(§1) FIGS. 6A, 6B. Charts showing the difference between fluorogenic acetyl peptide-AMC substrate (A) and heptyl peptide-AMC substrate (B) detection ability of Sirt6 and PfSir2 activity.
(§2) With respect to the first reaction (deacylation by Sirt6, PfSir2a, or Sirt7), the pH for the reaction can be selected by taking the optimal pH of Sirt6, PfSir2a, or Sirt7 into consideration. The pH is typically adjusted to a pH of 6.0 to 8.5, or more particularly, a pH of 6.8 to 8.5. The reaction buffer preferably provides the above-mentioned pH. For example, Tris-HCl, HEPES-KOH, and other such buffers may be used in the instant method. More specifically, for example, 20 mM Tris-HCl having a pH of 7.4 can be used. Generally, NAD is a co-substrate required for Sirt6, PfSir2a, or Sirt7 functioning, and is typically used at about 0.5 mM concentration. Salts and preservatives are generally also included in the reaction solution. […]
(§3) For sirtuins with robust deacetylase activity, a fluorogenic assay has been used to detect the activity and screen for inhibitors/activators (FIG. 5, top). […] After a sirtuin removes the acetyl group, the AMC can be released by trysin, which produces a fluorescence signal. Thus, the presence of a compound that can change the activity of sirtuin being analyzed can be detected by monitoring the fluoroscence released in the reaction. […]

For another experiment, the target named is PfSir2a (Plasmodium falciparum, UniProt Q8IE47). Nature of the experiment: Fluorogenic acyl peptide-AMC assay with PfSir2a. The format is biochemical. Particulars: AMC released by trypsin, fluorescence.
Source text: as §1, §2, §3

PfSir2a, sequence (Q8IE47 whole entry): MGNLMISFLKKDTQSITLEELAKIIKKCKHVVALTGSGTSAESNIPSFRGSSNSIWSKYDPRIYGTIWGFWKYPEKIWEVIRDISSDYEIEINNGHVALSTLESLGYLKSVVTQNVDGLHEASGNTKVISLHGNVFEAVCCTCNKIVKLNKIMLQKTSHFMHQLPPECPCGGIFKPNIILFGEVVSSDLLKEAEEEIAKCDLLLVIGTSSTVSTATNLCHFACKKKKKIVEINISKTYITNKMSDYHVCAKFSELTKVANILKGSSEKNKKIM
Sirt6, sequence (Q8N6T7 whole entry): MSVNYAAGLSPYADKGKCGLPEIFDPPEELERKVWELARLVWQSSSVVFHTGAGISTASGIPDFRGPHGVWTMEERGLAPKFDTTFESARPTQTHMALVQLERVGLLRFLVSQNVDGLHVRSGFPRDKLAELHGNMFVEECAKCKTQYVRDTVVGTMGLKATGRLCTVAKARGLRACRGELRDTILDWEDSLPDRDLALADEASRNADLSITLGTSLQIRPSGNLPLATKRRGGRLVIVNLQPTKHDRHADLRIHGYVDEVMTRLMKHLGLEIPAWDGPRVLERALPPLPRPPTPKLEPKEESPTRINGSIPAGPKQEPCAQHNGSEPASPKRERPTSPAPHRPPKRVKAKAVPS

In the case of “ISGASE(acetyl-K)-AMC peptide [acetyl peptide-AMC]”, the “detection of Sirt6 activity with peptide-AMC substrate” value at Sirt6 is on record as “not detectable”. On PfSir2a, the “detection of PfSir2a activity with peptide-AMC substrate” value is on record as “not detectable”.

Take “ISGASE(heptanoyl-K)-AMC peptide [heptanoyl peptide-AMC]”: the “detection of Sirt6 activity with peptide-AMC substrate” value at Sirt6 is “can be used to detect the activity of Sirt6 and PfSir2a”. In addition, at PfSir2a, the “detection of PfSir2a activity with peptide-AMC substrate” value was “can be used to detect the activity of Sirt6 and PfSir2a”.

The values above are taken from patent US10072282B2, “Modulators for SIRT6 and assays for screening same” (Cornell University, priority 2010, dated 2018).
